Source: US10611730B2, “Benzimidazolone and benzothiazolone compounds and their use as AMPA receptor modulators” (Janssen Pharmaceutica NV, priority 2015, dated 2020)

Each molecule was assayed against TARP γ8 dependent AMPA receptor (GluA1o-g8 fusion channel) (Homo sapiens (Human), UniProt P42261+Q8WXS5) (assay: Calcium flux assay (FLIPR), HEK293 cells expressing GRIA1o-CACNG8 fusion). Conditions: inhibition of calcium flux after 15 μM glutamate, read-out: GluR1-γ8 pIC50 (converted).
Format: cell-based
Summary of the method: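 Stable HEK293 clone expressing GluA1o-γ8 fusion (1:1 stoichiometry), loaded with Calcium-5/6 dye plus test compound; glutamate-evoked fluorescence normalized to control wells. Concentration-response fitted to four-parameter logistic, midpoint taken as inhibitory potency.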

TARP γ8 dependent AMPA receptor (GluA1o-g8 fusion channel), sequence (P42261 other isoform, or with tags, fused parts or gaps): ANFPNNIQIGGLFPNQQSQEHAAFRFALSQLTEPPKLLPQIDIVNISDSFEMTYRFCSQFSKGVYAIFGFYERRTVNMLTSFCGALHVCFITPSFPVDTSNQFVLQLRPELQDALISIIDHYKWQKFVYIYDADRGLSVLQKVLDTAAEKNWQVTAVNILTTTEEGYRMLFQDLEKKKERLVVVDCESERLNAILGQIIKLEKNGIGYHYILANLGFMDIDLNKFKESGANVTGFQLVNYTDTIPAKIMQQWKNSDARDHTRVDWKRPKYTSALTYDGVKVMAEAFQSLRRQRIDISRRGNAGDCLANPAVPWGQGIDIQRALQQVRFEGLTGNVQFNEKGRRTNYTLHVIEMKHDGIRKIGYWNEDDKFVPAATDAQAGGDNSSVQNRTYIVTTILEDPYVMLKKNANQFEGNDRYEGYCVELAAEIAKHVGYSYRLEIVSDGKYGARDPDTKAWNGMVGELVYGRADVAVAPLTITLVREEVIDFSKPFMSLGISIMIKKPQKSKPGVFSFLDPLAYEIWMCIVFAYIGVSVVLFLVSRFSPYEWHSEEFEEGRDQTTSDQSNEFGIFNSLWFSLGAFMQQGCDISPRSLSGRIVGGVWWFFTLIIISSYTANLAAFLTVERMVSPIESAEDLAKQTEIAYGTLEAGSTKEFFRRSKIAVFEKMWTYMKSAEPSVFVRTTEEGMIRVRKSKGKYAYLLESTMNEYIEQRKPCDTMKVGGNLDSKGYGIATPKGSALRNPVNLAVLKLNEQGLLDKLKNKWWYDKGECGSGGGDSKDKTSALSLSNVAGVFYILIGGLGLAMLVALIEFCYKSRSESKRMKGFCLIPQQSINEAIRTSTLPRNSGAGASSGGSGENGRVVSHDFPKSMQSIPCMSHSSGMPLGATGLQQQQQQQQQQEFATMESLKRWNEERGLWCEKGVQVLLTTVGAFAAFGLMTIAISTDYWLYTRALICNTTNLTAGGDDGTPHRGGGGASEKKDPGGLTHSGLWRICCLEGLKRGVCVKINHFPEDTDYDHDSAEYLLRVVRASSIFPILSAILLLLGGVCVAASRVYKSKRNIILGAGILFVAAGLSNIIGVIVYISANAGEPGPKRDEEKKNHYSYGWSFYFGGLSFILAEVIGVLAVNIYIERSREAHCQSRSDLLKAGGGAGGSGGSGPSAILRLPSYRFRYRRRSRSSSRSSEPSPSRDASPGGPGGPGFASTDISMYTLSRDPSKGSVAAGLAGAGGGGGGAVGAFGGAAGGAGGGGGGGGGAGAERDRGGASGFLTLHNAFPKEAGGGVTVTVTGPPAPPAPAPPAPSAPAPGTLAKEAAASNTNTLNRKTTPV

Structure (SMILES) | IC50
COC(=O)c1cccc(-c2ccc3[nH]c(=O)[nH]c3c2)c1OC [Example 48, Methyl 2-methoxy-3-(2-oxo-1,3-dihydrobenzimidazol-5-yl)benzoate] | 6310 nM
COc1cccc(OCC(F)F)c1-c1ccc2[nH]c(=O)[nH]c2c1 [Example 102, 5-[2-(2,2-Difluoroethoxy)-6-methoxy-phenyl]-1,3-dihydrobenzimidazol-2-one] | 398 nM
CC(C)Oc1cccc(-c2ccc3[nH]c(=O)[nH]c3c2)c1Cl [Example 110, 5-(2-Chloro-3-isopropoxy-phenyl)-1,3-dihydrobenzimidazol-2-one] | 31.6 nM
N#CCOc1cccc(Cl)c1-c1ccc2[nH]c(=O)[nH]c2c1 [Example 97, 2-[3-Chloro-2-(2-oxo-1,3-dihydrobenzimidazol-5-yl)phenoxy]acetonitrile] | 316 nM
Cc1cccc(-c2ccccc2)c1-c1ccc2[nH]c(=O)[nH]c2c1 [Example 179, 5-(2-Methyl-6-phenyl-phenyl)-1,3-dihydrobenzimidazol-2-one] | 63.1 nM
Cc1c(CN2CC[C@H](O)[C@H](F)C2)cccc1-c1ccc2[nH]c(=O)[nH]c2c1 (stereo in doubt) [Example 159, (3R,4S)-5-[3-[[3-Fluoro-4-hydroxy-1-piperidyl]methyl]-2-methyl-phenyl]-1,3-dihydrobenzimidazol-2-one] | 6310 nM
Cc1c(CN2CCCC2)cccc1-c1ccc2[nH]c(=O)[nH]c2c1 [Example 156, 5-[2-Methyl-3-(pyrrolidin-1-ylmethyl)phenyl]-1,3-dihydrobenzimidazol-2-one] | 6310 nM
O=c1[nH]c2ccc(-c3ccccc3Oc3ccccc3)cc2[nH]1 [Example 24, 5-(2-Phenoxyphenyl)-1,3-dihydrobenzimidazol-2-one] | 501 nM
Cc1cccc(C#N)c1-c1ccc2[nH]c(=O)[nH]c2c1 [Example 38, 3-Methyl-2-(2-oxo-1,3-dihydrobenzimidazol-5-yl)benzonitrile] | 501 nM
CC(C)(C)Oc1cccc(Cl)c1-c1ccc2[nH]c(=O)[nH]c2c1 [Example 116, 5-(2-tert-Butoxy-6-chloro-phenyl)-1,3-dihydrobenzimidazol-2-one] | 158 nM
COC(=O)c1ccc(C)c(-c2ccc3[nH]c(=O)[nH]c3c2)c1 [Example 47, Methyl 4-methyl-3-(2-oxo-1,3-dihydrobenzimidazol-5-yl)benzoate] | 501 nM
O=c1[nH]c2ccc(-c3c(Cl)cccc3-c3cccnc3)cc2[nH]1 [Example 165, 5-[2-Chloro-6-(3-pyridyl)phenyl]-1,3-dihydrobenzimidazol-2-one] | 126 nM
N#CC1(c2cccc(Cl)c2-c2ccc3[nH]c(=O)[nH]c3c2)CCC1 [Example 129, 1-[3-Chloro-2-(2-oxo-1,3-dihydrobenzimidazol-5-yl)phenyl]cyclobutanecarbonitrile] | 794 nM
Cc1c(CN2CCOCC2C)cccc1-c1ccc2[nH]c(=O)[nH]c2c1 (stereo in doubt) [Example 152, (3R)-5-[2-Methyl-3-[[3-methylmorpholin-4-yl]methyl]phenyl]-1,3-dihydrobenzimidazol-2-one] | 1000 nM
Cn1cc(-c2cccc(-c3ccc4[nH]c(=O)sc4c3)c2Cl)cn1 [Example 212, 6-(2-Chloro-3-(1-methyl-1H-pyrazol-4-yl)phenyl)benzo[d]thiazol-2(3H)-one] | 200 nM
N#Cc1ccc(-c2cccc(Cl)c2-c2ccc3[nH]c(=O)[nH]c3c2)cc1 [Example 164, 4-[3-Chloro-2-(2-oxo-1,3-dihydrobenzimidazol-5-yl)phenyl]benzonitrile] | 39.8 nM
COc1ccc(-c2cccc(CC#N)c2-c2ccc3[nH]c(=O)[nH]c3c2)cc1 [Example 137, 2-[3-(4-Methoxyphenyl)-2-(2-oxo-1,3-dihydrobenzimidazol-5-yl)phenyl]acetonitrile] | 316 nM
CC(C)(C)OC(=O)N1CCC=C(c2cccc(-c3ccc4[nH]c(=O)[nH]c4c3)c2Cl)C1 [Example 186, tert-Butyl 5-[2-chloro-3-(2-oxo-1,3-dihydrobenzimidazol-5-yl)phenyl]-3,6-dihydro-2H-pyridine-1-carboxylate] | 6.31 nM
O=c1[nH]c2ccc(-c3cccc(CN4CCCCC4)c3Cl)cc2[nH]1 [Example 142, 5-[2-Chloro-3-(1-piperidylmethyl)phenyl]-1,3-dihydrobenzimidazol-2-one] | 631 nM
Cc1c(C(=O)NC2CC2)cccc1-c1ccc2[nH]c(=O)[nH]c2c1 [Example 80, N-Cyclopropyl-2-methyl-3-(2-oxo-1,3-dihydrobenzimidazol-5-yl)benzamide] | 3980 nM
Cc1c(-c2ccc3[nH]c(=O)[nH]c3c2)cccc1-c1nnco1 [Example 194, 5-[2-Methyl-3-(1,3,4-oxadiazol-2-yl)phenyl]-1,3-dihydrobenzimidazol-2-one] | 501 nM
Cc1cc(-c2c(Cl)cccc2OC(F)(F)F)cc2[nH]c(=O)[nH]c12 [Example 211, 6-(2-Chloro-6-(trifluoromethoxy)phenyl)-4-methyl-1H-benzo[d]imidazol-2(3H)-one] | 0.1 nM

Structure (SMILES) | IC50
Cc1c(-c2ccc3[nH]c(=O)sc3c2)cccc1-c1ncon1 [Example 207, 6-[2-Methyl-3-(1,2,4-oxadiazol-3-yl)phenyl]-3H-1,3-benzothiazol-2-one] | 126 nM
O=c1[nH]c2ccc(-c3c(Cl)cccc3-c3cn[nH]c3)cc2[nH]1 [Example 176, 5-[2-Chloro-6-(1H-pyrazol-4-yl)phenyl]-1,3-dihydrobenzimidazol-2-one] | 2000 nM
O=c1[nH]c2ccc(-c3c(Cl)cccc3-c3cncnc3)cc2[nH]1 [Example 178, 5-(2-Chloro-6-pyrimidin-5-yl-phenyl)-1,3-dihydrobenzimidazol-2-one] | 3980 nM
CC(C#N)c1cccc(Cl)c1-c1ccc2[nH]c(=O)[nH]c2c1 (racemic) [Example 126, (±)-2-[3-Chloro-2-(2-oxo-1,3-dihydrobenzimidazol-5-yl)phenyl]propanenitrile] | 12.6 nM
COc1cccc(OCc2ccc(F)cc2)c1-c1ccc2[nH]c(=O)[nH]c2c1 [Example 106] | 39.8 nM
N#CCc1cccc(-c2ccc(F)cc2)c1-c1ccc2[nH]c(=O)[nH]c2c1 [Example 135, 2-[3-(4-Fluorophenyl)-2-(2-oxo-1,3-dihydrobenzimidazol-5-yl)phenyl]acetonitrile] | 20 nM
O=c1[nH]c2ccc(-c3ccccc3OCC3CC3)cc2[nH]1 [Example 13, 5-[2-(Cyclopropylmethoxy)phenyl]-1,3-dihydrobenzimidazol-2-one] | 398 nM
N#CCc1cccc(Br)c1-c1ccc2[nH]c(=O)[nH]c2c1 [Example 132, 2-[3-Bromo-2-(2-oxo-1,3-dihydrobenzimidazol-5-yl)phenyl]acetonitrile] | 31.6 nM
Cc1nnc(-c2cccc(-c3ccc4[nH]c(=O)[nH]c4c3)c2C)o1 [Example 195, 5-[2-Methyl-3-(5-methyl-1,3,4-oxadiazol-2-yl)phenyl]-1,3-dihydrobenzimidazol-2-one] | 2510 nM
Cc1c(-c2ccc3[nH]c(=O)[nH]c3c2)cccc1-c1noc(-c2ccncc2)n1 [Example 75, 5-[2-Methyl-3-[5-(4-pyridyl)-1,2,4-oxadiazol-3-yl]phenyl]-1,3-dihydrobenzimidazol-2-one] | 20 nM
Cc1c(CN2CC3CC(C2)O3)cccc1-c1ccc2[nH]c(=O)[nH]c2c1 [Example 158, 5-[2-Methyl-3-(6-oxa-3-azabicyclo[3;1;1]heptan-3-ylmethyl)phenyl]-1,3-dihydrobenzimidazol-2-one] | 6310 nM
N#Cc1c(Br)cccc1-c1ccc2[nH]c(=O)[nH]c2c1 [Example 63, 2-Bromo-6-(2-oxo-1,3-dihydrobenzimidazol-5-yl)benzonitrile] | 631 nM
Cc1c(-c2ccc3[nH]c(=O)[nH]c3c2)cccc1-c1nc(C(F)(F)F)no1 [Example 205, 5-[2-Methyl-3-[3-(trifluoromethyl)-1,2,4-oxadiazol-5-yl]phenyl]-1,3-dihydrobenzimidazol-2-one] | 39.8 nM
Cc1c(-c2ccc3[nH]c(=O)[nH]c3c2)cccc1-c1nnc(C2CC2)o1 [Example 197, 5-[3-(5-Cyclopropyl-1,3,4-oxadiazol-2-yl)-2-methyl-phenyl]-1,3-dihydrobenzimidazol-2-one] | 398 nM
Cc1nnc(-c2cccc(-c3ccc4[nH]c(=O)[nH]c4c3)c2Cl)o1 [Example 191, 5-[2-Chloro-3-(5-methyl-1,3,4-oxadiazol-2-yl)phenyl]-1,3-dihydrobenzimidazol-2-one] | 2000 nM
O=C(c1ccc(Cl)c(-c2ccc3[nH]c(=O)[nH]c3c2)c1)N1CCCCC1 [Example 85, 5-[2-Chloro-5-(piperidine-1-carbonyl)phenyl]-1,3-dihydrobenzimidazol-2-one] | 5010 nM
O=c1[nH]c2ccc(-c3c(Cl)cccc3NCc3ccco3)cc2[nH]1 [Example 86, 5-[2-Chloro-6-(2-furylmethylamino)phenyl]-1,3-dihydrobenzimidazol-2-one] | 158 nM
CC(C)(C)OC(=O)N1CC(Oc2cccc(Cl)c2-c2ccc3[nH]c(=O)[nH]c3c2)C1 [Example 100, tert-Butyl 3-[3-chloro-2-(2-oxo-1,3-dihydrobenzimidazol-5-yl)phenoxy]azetidine-1-carboxylate] | 316 nM
N#Cc1ccc(OC(F)(F)F)c(-c2ccc3[nH]c(=O)[nH]c3c2)c1Cl [Example 208, 2-Chloro-3-(2-oxo-1,3-dihydrobenzimidazol-5-yl)-4-(trifluoromethoxy)benzonitrile] | 15.8 nM
O=c1[nH]c2cc(F)c(-c3c(Cl)cccc3OC(F)(F)F)cc2s1 [Example 210, 6-[2-Chloro-6-(trifluoromethoxy)phenyl]-5-fluoro-3H-1,3-benzothiazol-2-one] | 63.1 nM
Cc1nc(-c2cccc(-c3ccc4[nH]c(=O)sc4c3)c2C)no1 [Example 72, 6-[2-Methyl-3-(5-methyl-1,2,4-oxadiazol-3-yl)phenyl]-3H-1,3-benzothiazol-2-one] | 794 nM
O=c1[nH]c2ccc(-c3cc(Cl)ccc3Cl)cc2[nH]1 [Example 18, 5-(2,5-Dichlorophenyl)-1,3-dihydrobenzimidazol-2-one] | 251 nM
